According to US20230143612A1 (Arbutus Biopharma Corporation, priority 2020, published 2023):

Target: PD-L1 His protein / PD-1 Fc protein (Homo sapiens, UniProt Q9NZQ7)
Assay: HTRF Assay (PD-1/PD-L1 interaction)
Format: binding
Conditions: PD-L1 His 6 nM, PD-1 Fc 6 nM
Method in brief: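 Compounds tested from 20 μM down to 0.001 μM (3-fold) against 6 nM PD-L1 His and 6 nM PD-1 Fc, 15 min room temperature incubation. Detection after 1 h at room temperature with Tb cryptate anti-6HIS and XL665 anti-human IgG reagents (mixture at 0.35 nM and 6.7 nM), HTRF signal.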

PD-L1 His protein / PD-1 Fc protein, sequence (Q9NZQ7 19-238 limits assumed): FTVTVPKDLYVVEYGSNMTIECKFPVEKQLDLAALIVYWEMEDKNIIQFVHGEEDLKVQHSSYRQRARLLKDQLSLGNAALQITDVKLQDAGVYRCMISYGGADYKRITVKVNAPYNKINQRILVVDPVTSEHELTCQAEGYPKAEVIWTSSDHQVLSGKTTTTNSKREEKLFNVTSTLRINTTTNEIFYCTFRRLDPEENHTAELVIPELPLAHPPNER

Row | Compound | IC50 [nM]
1 | COc1c(CNC[C@@H]2CCC(=O)N2)ccc2nc(-c3cccc(-c4cccc(-c5ccn6c(=O)c(CNC[C@@H]7CCC(=O)N7)cnc6c5)c4Cl)c3Cl)ccc12 [Example 176, 8-(2,2′-Dichloro-3′-(5-methoxy-6-(((((S)-5-oxopyrrolidin-2-yl)methyl)amino)methyl)quinolin-2-yl)-[1,1′-biphenyl]-3-yl)-3-(((((S)-5-oxopyrrolidin-2-yl)methyl)amino)methyl)-4H-pyrido[1,2-a]pyrimidin-4-one] | 250
2 | COc1nc(-c2cccc(-c3cccc(-c4ccn5c(=O)cc(CN6C[C@@H](O)CC6=O)nc5c4)c3Cl)c2Cl)ccc1CNC[C@@H]1CCC(=O)N1 [Example 342, 8-(2,2′-Dichloro-3′-(6-methoxy-5-(((((S)-5-oxopyrrolidin-2-yl)methyl)amino)methyl)pyridin-2-yl)-[1,1′-biphenyl]-3-yl)-2-(((S)-4-hydroxy-2-oxopyrrolidin-1-yl)methyl)-4H-pyrido[1,2-a]pyrimidin-4-one] | 0.1
3 | Cc1c(COc2cc(OCc3cncc(C#N)c3)c(CNCCO)cc2Cl)cccc1-c1cccc(-n2cnc3cc(CNCCO)ccc3c2=O)c1C [Example 6, 5-((4-Chloro-2-(((2-hydroxyethyl)amino)methyl)-5-((3′-(7-(((2-hydroxyethyl)amino)methyl)-4-oxoquinazolin-3(4H)-yl)-2,2′-dimethyl-[1,1′-biphenyl]-3-yl)methoxy)phenoxy)methyl)nicotinonitrile] | 44
4 | COc1nc(-c2cccc(-c3cccc(-c4ccn5c(=O)c(CNC[C@@H]6CCC(=O)N6)ccc5c4)c3C)c2Cl)cnc1CNC[C@@H]1CCC(=O)N1 [Example 49, 8-(2′-Chloro-3′-(6-methoxy-5-(((((S)-5-oxopyrrolidin-2-yl)methyl)amino)methyl)pyrazin-2-yl)-2-methyl-[1,1′-biphenyl]-3-yl)-3-(((((S)-5-oxopyrrolidin-2-yl)methyl)amino)methyl)-4H-quinolizin-4-one] | 6.3
5 | COc1nc(-c2cccc(-c3cccc(-c4nnc5n4CCN(CCO)C5)c3Cl)c2Cl)ccc1CNC[C@@H]1CCC(=O)N1 [Example 242, (S)-5-((((6-(2,2′-Dichloro-3′-(7-(2-hydroxyethyl)-5,6,7,8-tetrahydro-[1,2,4]triazolo[4,3-a]pyrazin-3-yl)-[1,1′-biphenyl]-3-yl)-2-methoxypyridin-3-yl)methyl)amino)methyl)pyrrolidin-2-one] | 1700
6 | COc1nc(-c2cccc(-c3cccc(-c4ccc5c(n4)N(C)CCC5NC[C@@H]4CCC(=O)N4)c3Cl)c2Cl)ccc1CNC[C@@H]1CCC(=O)N1 (single isomer, unassigned) [Example 52] | 0.8
7 | COc1nc(-c2cccc(-c3cccc(-c4ccc5nc(CNCCO)cn5n4)c3Cl)c2Cl)ccc1CNC[C@@H]1CCC(=O)N1 [Example 352, (5S)-5-[[[6-[2-Chloro-3-[2-chloro-3-[2-[(2-hydroxyethylamino)methyl]imidazo[1,2-b]pyridazin-6-yl]phenyl]phenyl]-2-methoxy-3-pyridyl]methylamino]methyl]pyrrolidin-2-one] | 0.5
8 | COc1nc(-c2cccc(-c3cccc(-c4ccn5c(=O)c(CNCCO)cnc5c4)c3Cl)c2Cl)ccc1CNC[C@@H]1CCC(=O)N1 [Example 80, (S)-8-(2,2′-Dichloro-3′-(6-methoxy-5-((((5-oxopyrrolidin-2-yl)methyl)amino)methyl)pyridin-2-yl)-[1,1′-biphenyl]-3-yl)-3-(((2-hydroxyethyl)amino)methyl)-4H-pyrido[1,2-a]pyrimidin-4-one] | 4.2
9 | COc1nc(-c2cccc(-c3cccc(-c4ccn5c(=O)c(CNC[C@@H]6CCC(=O)N6)cnc5c4)c3Cl)c2Cl)cnc1N1CC(N)C1 [Example 71, (S)-8-(3′-(5-(3-Aminoazetidin-1-yl)-6-methoxypyrazin-2-yl)-2,2′-dichloro-[1,1′-biphenyl]-3-yl)-3-((((5-oxopyrrolidin-2-yl)methyl)amino)methyl)-4H-pyrido[1,2-a]pyrimidin-4-one] | 2
10 | COc1cc(-c2cccc(-c3cccc(-c4ccc(CNC[C@@H]5CCC(=O)N5)c(OC)n4)c3Cl)c2Cl)cc2c1CCN(C[C@@H]1CCC(=O)N1)C2 [Example 424, (S)-5-((((6-(2,2′-Dichloro-3′-(5-methoxy-2-(((S)-5-oxopyrrolidin-2-yl)methyl)-1,2,3,4-tetrahydroisoquinolin-7-yl)-[1,1′-biphenyl]-3-yl)-2-methoxypyridin-3-yl)methyl)amino)methyl)pyrrolidin-2-one] | 27
11 | COc1nc(-c2cccc(-c3cccc(-c4ccn5c(=O)c(CN6CC[C@H](O)C6)cnc5c4)c3Cl)c2Cl)ccc1CN1CC[C@H](O)C1 [Example 165, 8-(2,2′-Dichloro-3′-(5-(((S)-3-hydroxypyrrolidin-1-yl)methyl)-6-methoxypyridin-2-yl)-[1,1′-biphenyl]-3-yl)-3-(((S)-3-hydroxypyrrolidin-1-yl)methyl)-4H-pyrido[1,2-a]pyrimidin-4-one] | 0.1
12 | COc1nc(-c2cccc(-c3cccc(-c4ccn5c(=O)c(CNC[C@@H]6CCC(=O)N6)c(C)nc5c4)c3Cl)c2Cl)cc(F)c1CNC[C@@H]1CCC(=O)N1 [Example 404, 8-(2,2′-Dichloro-3′-(4-fluoro-6-methoxy-5-(((((S)-5-oxopyrrolidin-2-yl)methyl)amino)methyl)pyridin-2-yl)-[1,1′-biphenyl]-3-yl)-2-methyl-3-(((((S)-5-oxopyrrolidin-2-yl)methyl)amino)methyl)-4H-pyrido[1,2-a]pyrimidin-4-one] | 0.1
13 | COc1nc(-c2cccc(-c3cccc(-c4ccc5c(n4)CCC[C@H]5NC[C@@H]4CCC(=O)N4)c3Cl)c2Cl)ccc1CNC[C@@H]1CCC(=O)N1 [Example 456, (S)-5-((((6-(2,2′-Dichloro-3′-((R)-5-((((S)-5-oxopyrrolidin-2-yl)methyl)amino)-5,6,7,8-tetrahydroquinolin-2-yl)-[1,1′-biphenyl]-3-yl)-2-methoxypyridin-3-yl)methyl)amino)methyl)pyrrolidin-2-one] | 0.2
14 | COc1nc(-c2cccc(-c3cccc(-c4ccc5c(CNC[C@H](C)OC)cn(C)c5n4)c3Cl)c2Cl)ccc1CNC[C@@H]1CCC(=O)N1 [Example 445, (5S)-5-[[[6-[2-Chloro-3-[2-chloro-3-[3-[[[(2S)-2-methoxypropyl]amino]methyl]-1-methyl-pyrrolo[2,3-b]pyridin-6-yl]phenyl]phenyl]-2-methoxy-3-pyridyl]methylamino]methyl]pyrrolidin-2-one] | 460
15 | Cn1cc(CNC[C@@H]2CCC(=O)N2)c2ccc(-c3cccc(-c4cccc(-c5ccn6c(=O)c(CNC[C@@H]7CCC(=O)N7)cnc6c5)c4Cl)c3Cl)cc21 [Example 453, 8-[2-Chloro-3-[2-chloro-3-[1-methyl-3-[[[(2S)-5-oxopyrrolidin-2-yl]methylamino]methyl]indol-6-yl]phenyl]phenyl]-3-[[[(2S)-5-oxopyrrolidin-2-yl]methylamino]methyl]pyrido[1,2-a]pyrimidin-4-one] | 1200
16 | COc1nc(-c2cccc(-c3cccc(-c4cc5c(=O)n(C)c(CNC[C@@H]6CCCO6)nn5c4)c3Cl)c2Cl)ccc1CNC[C@@H]1CCC(=O)N1 [Example 474, 6-[2-Chloro-3-[2-chloro-3-[6-methoxy-5-[[[(2S)-5-oxopyrrolidin-2-yl]methylamino]methyl]-2-pyridyl]phenyl]phenyl]-3-methyl-2-[[[(2S)-tetrahydrofuran-2-yl]methylamino]methyl]pyrrolo[2,1-f][1,2,4]triazin-4-one] | 21
17 | COc1nc(-c2cccc(-c3cccc(-c4ccn5c(=O)c(C)c(CNCCO)nc5c4)c3Cl)c2Cl)ccc1CNC[C@@H]1CCC(=O)N1 [Example 371, (S)-8-(2,2′-Dichloro-3′-(6-methoxy-5-((((5-oxopyrrolidin-2-yl)methyl)amino)methyl)pyridin-2-yl)-[1,1′-biphenyl]-3-yl)-2-(((2-hydroxyethyl)amino)methyl)-3-methyl-4H-pyrido[1,2-a]pyrimidin-4-one] | 33
18 | COc1nc(-c2cccc(-c3cccc(-c4ccn5c(=O)c(CNCCO)cnc5c4)c3Cl)c2Cl)ccc1CNCCO [Example 75, 8-(2,2′-Dichloro-3′-(5-(((2-hydroxyethyl)amino)methyl)-6-methoxypyridin-2-yl)-[1,1′-biphenyl]-3-yl)-3-(((2-hydroxyethyl)amino)methyl)-4H-pyrido[1,2-a]pyrimidin-4-one] | 3.4
19 | COc1nc(-c2cccc(-c3cccc(-c4cc5c(=O)n(C)c(CNCC6(F)CC6)nn5c4)c3Cl)c2Cl)ccc1CNC[C@@H]1CCC(=O)N1 [Example 463, (S)-6-(2,2′-Dichloro-3′-(6-methoxy-5-((((5-oxopyrrolidin-2-yl)methyl)amino)methyl)pyridin-2-yl)-[1,1′-biphenyl]-3-yl)-2-((((1-fluorocyclopropyl)methyl)amino)methyl)-3-methylpyrrolo[2,1-f][1,2,4]triazin-4(3H)-one] | 36
20 | COc1nc(-c2cccc(-c3cccc(-c4ccc5[nH]c(CNC[C@@H]6CCC(=O)N6)c(Cl)c5n4)c3Cl)c2Cl)ccc1CNC[C@@H]1CCC(=O)N1 [Example 385, (S)-5-((((3-Chloro-5-(2,2′-dichloro-3′-(6-methoxy-5-(((((S)-5-oxopyrrolidin-2-yl)methyl)-amino)methyl)-pyridin-2-yl)-[1,1′-biphenyl]-3-yl)-1H-pyrrolo[3,2-b]-pyridin-2-yl)methyl)-amino)methyl)-pyrrolidin-2-one] | 13
21 | COc1cc(-c2cccc(-c3cccc(-c4ccc(CNC[C@@H]5CCC(=O)N5)c(OC)n4)c3Cl)c2Cl)cc2c1CN(CCC(C)(C)O)CC2 [Example 485, (S)-5-((((6-(2,2′-Dichloro-3′-(2-(3-hydroxy-3-methylbutyl)-8-methoxy-1,2,3,4-tetrahydroisoquinolin-6-yl)-[1,1′-biphenyl]-3-yl)-2-methoxypyridin-3-yl)methyl)amino)methyl)pyrrolidin-2-one] | 0.1
